Reference: US8901276B2, “Peptide reagents and methods for detection of colon dysplasia” (The Regents of the University of Michigan, priority 2010, dated 2014)
Where no end group is shown, it is not given here. The star is where a group is joined. 5‑TAMRA = CN(C)c1ccc2c(-c3ccc(C(=O)*)cc3C(=O)[O-])c3ccc(N(C)C)cc3[o+]c2c1; DEAC = CCN(CC)c1ccc2cc(C(=O)*)c(=O)oc2c1; Cy5.5 = Cy5.5 fluorescent dye; Ahx = NCCCCCC(=O)O

Tests used:
[1] = system: colonic adenomas; assay: In vivo imaging with non-scanning endoscope, FITC-labeled peptides; parameters: species or system CPC; Apc mice; conditions: Non-scanning Endoscopy Results; FITC label; mean ± SD
Source text: Specific binding of the candidate peptides to primary dysplastic colonic epithelial cells were validated on flow cytometry ex vivo and with small animal endoscopy in vivo using FITC-labeled peptides using a non-scanning white light endoscope.

[2] = system: colonic adenomas; assay: In vivo imaging with multi-spectral scanning fiber endoscope; parameters: species or system CPC; Apc mice; conditions: 100 μM topical, 5 min; for Average T/B: Multi-Spectral Scanning Fiber Endoscopy Results, mean ± SD
Source text: A scanning fiber endoscope system was adapted for fluorescence detection in three channels (RGB) using excitation at 440 (NDHB510APA, Nichia, Tokyo, Japan), 532 (FTEC532-V10TA0, Blue Sky Research, Milpitas, Calif.) and 635 (FMXL635-017TA0B, Blue Sky Research) nm using an RGB coupler (OZ Optics, Ottawa, Canada). The three laser sources are delivered simultaneously into the scanning fiber, and focused to the same point on the illumination plane using a custom lens assembly, as shown in the schematic in FIG. 2A. The laser power coming out of the distal tip of the endoscope is <2 mW for each channel, a level consistent with a non-significant risk (NSR) determination by the U.S. Food and Drug Administration (FDA, 21 CFR 812) for future human clinical studies. The amplitude of the spiral scanner was reduced to achieve a divergence angle of 70 deg (max 100 deg) to minimize noise in the periphery of the image. Fluorescence is collected by a ring of 12 step-index plastic optical fibers (POF) with numerical aperture (N.A.) of 0.63 and outer diameter of 250 μm (Toray Industries Inc, Tokyo, Japan).
The CPC;Apc mice were first imaged with white light using a non-scanning endoscope (Karl Storz Veterinary Endoscopy, Goleta, Calif.) to assess for the presence of colonic adenomas that have a size between ˜0.5 to 4 mm in diameter. Any adenomas were rinsed of debris including stool and mucous, by delivering tap water through a 3 Fr instrument channel. Then, the fluorescent-labeled peptides were delivered topically at a concentration of 100 μM in 1×PBS in a volume of 1 mL to the distal 4 cm of the colon and rectum. The peptides were incubated for 5 minutes and then the unbound peptides were rinsed away with tap water 3 times. The colon was inspected for any residual peptide, and when clean, the colon was insufflated with air and imaged with the multi-spectral scanning fiber endoscope.
Videos collected during endoscopy were exported as avi video files and converted into sequential png images using Apple QuickTime. White light and fluorescence images for each adenoma were analyzed in NIH Image J. The white light image was utilized to draw a region of interest (ROI) around the adenoma or adjacent normal appearing colonic mucosa which was then superimposed onto the fluorescence image. The mean fluorescence intensities were calculated for each ROI, and a target/background (T/B) ratio was calculated for each colonic adenoma and compared to the surrounding normal appearing mucosa.

[3] = system: HT29 cells; assay: Competitive inhibition assay (bound phage counts); format: cell-based, human
Method: Bound phage counts were performed to observe the competitive inhibition effect of the synthetic candidate heptapeptide with its representative phage counterpart in triplicate. HT29 cells (5×10^6) were detached with enzyme free cell dissociation buffer and blocked with 1% BSA containing PBS for 30 min at 4° C. The cells were washed and incubated with phage (2×10^11) for 15 min. Then, the cells were washed with PBS and immediately incubated with different concentrations of unlabeled peptide ranging from 10 to 200 μM for an additional 15 min. Cells were washed 3× and the bound phages were recovered as described above in bound phage counts. The bound phages were then tittered and counted, and the relative inhibition rate was calculated. The inhibition activity of no-insert WT phage by synthetic candidate peptide and phage with unrelated synthetic control peptide were used as negative controls.

[4] = system: human colonic mucosa sections (normal, dysplasia, adenocarcinoma); assay: Cy5.5-labeled peptide staining of human colonic mucosa sections; conditions: for sections of adenocarcinoma stained / sections of dysplasia stained: stained/total sections
Method: All specimens were obtained with approval from the University of Michigan Institutional Review Board (IRB). Freshly resected specimens of human colonic mucosa were frozen in OCT and sectioned with 10 μm thickness using Microm-HM-550 Microtome (EquipNet, Inc. Canton, Mass.). The sections were then air dried, washed with PBS 1×, and incubated with the Cy5.5-labeled peptides at a concentration of 10 μM for 15 min at RT. The sections were washed 3× for 1 min in PBS and fixed with 4% paraformaldehyde for 10 min. After fixation, the sections were washed again (1×) and mounted with ProLong Gold reagent with DAPI (Invitrogen, Carlsbad, Calif.). The sections were imaged under a confocal microscope (Leica TCS SP5 Microsystems, Bannockburn, Ill.). Adjacent sections were sent for routine histology. The average intensity from the entire field-of-view of each image was calculated using Matlab (Mathworks, Natick, Mass.).
For the ex-vivo peptide immunohistochemistry, the nonparametric Kruskal-Wallis test was used to determine if observed differences are statistically significant among all three pathological classifications. The nonparametric Mann-Whitney test was used for comparisons between two independent samples, and differences with p<0.05 were considered significant.

[5] = system: colonic dysplasia (adenomas); assay: In vivo NIR fluorescence endoscopic imaging; parameters: species or system CPC;Apc mice; conditions: for fluorescence signal on in vivo NIR image: 100 μM topical, 5 min; for average T/B ratio: adenoma/adjacent normal ratio as defined
Source text: Anesthesia was induced and maintained with inhaled isofluorane mixed with oxygen via a nose cone at a dose of 4% and 2% at a flow rate 0.5 liter/min, respectively. Prior to peptide administration, the colon of each mouse was cleaned with a tap water lavage to remove debris. The conventional white light endoscope was used first with a color camera to identify the presence of adenomas. The colon was then rinsed with water until all of the visible mucous was removed. The Cy5.5-labeled peptides were then delivered at a concentration of 100 μM in 1×PBS containing 2.5% DMSO […] through the instrument channel. The peptides were allowed to incubate for 5 minutes, and then the colon was cleansed 3 times with a tap water to remove any unbound peptide. Prior to imaging, the colon was inspected for residual peptide solution, and when clean, the colon was insufflated with air for imaging. Fluorescence images were collected using Axiovision 4.8.1 software.
Images collected during endoscopy were recorded as .zvi files and converted into .tiff images using Axiovision Lite software. Consecutive white light and fluorescence images for each adenoma were analyzed. Regions of interest (ROI) around the adenoma and adjacent normal-appearing mucosa were defined on the color and fluorescence images using Labview®. The white light image was utilized to draw an ROI around the adenoma or adjacent normal appearing colonic mucosa which was then superimposed onto the fluorescent image. Mean gray scale values were calculated for each ROI, and an adenoma/normal colon, or a T/B ratio, value was then calculated for each adenoma. The mean fluorescence intensities were calculated from each ROI to determine the ratio of the average intensities for the adenomas to that from adjacent normal-appearing mucosa, or T/B ratio.
Two-tailed independent samples t-tests (significance level at α=0.05) were used to determine statistical significance between the T/B ratio for the QPI-Cy5.5 and YTT-Cy5.5 peptides binding to colonic adenomas in the CPC;Apc mice. All statistical computations were processed either using statistical software (SPSS15.0.; SPSS, Chicago, Ill.) or Minitab (Minitab Inc. State College, Pa.).

AKPGYLS-FITC: AKPGYLS labeled with 5′-FITC at the C-terminus via GGGSK linker (not fully specified; GGGSK linker, FITC)
Average T/B [1]: 1.53 ± 0.48

ALTPTPP-FITC: ALTPTPP labeled with 5′-FITC at the C-terminus via GGGSK linker (not fully specified; GGGSK linker, FITC)
Average T/B [1]: 1.19 ± 0.18

ANYPREP-FITC: ANYPREP labeled with 5′-FITC at the C-terminus via GGGSK linker (not fully specified; GGGSK linker, FITC)
Average T/B [1]: 0.94 ± 0.11

ATTVPAS-FITC: ATTVPAS labeled with 5′-FITC at the C-terminus via GGGSK linker (not fully specified; GGGSK linker, FITC)
Average T/B [1]: 1.06 ± 0.33

GGGAGGG-FITC: FITC-labeled GGGAGGG control peptide; probably the same as FITC-Control peptide 2 (also: FITC label, site not given here) [reference compound]
Average T/B [1]: 1.05 ± 0.05

GGGAGGGAGGGK (5-TAMRA)-NH2 (GGGAGGGAGGGK(5‑TAMRA)-NH2; N-terminus assumed; SMILES C[C@H](NC(=O)CNC(=O)CNC(=O)CN)C(=O)NCC(=O)NCC(=O)NCC(=O)N[C@@H](C)C(=O)NCC(=O)NCC(=O)NCC(=O)N[C@@H](CCCCNC(=O)c1ccc(-c2c3ccc(N(C)C)cc3[o+]c3cc(N(C)C)ccc23)c(C(=O)[O-])c1)C(N)=O) [GGGAGGG-TAMRA, reference compound]
binding to colonic dysplasia/adenomas on fluorescence images [2]: minimal signal
Average T/B [2]: 1.32±0.10

GGGAGGGAGGGK (DEAC)-NH2 (GGGAGGGAGGGK(DEAC)-NH2; N-terminus assumed; SMILES CCN(CC)c1ccc2cc(C(=O)NCCCC[C@H](NC(=O)CNC(=O)CNC(=O)CNC(=O)[C@H](C)NC(=O)CNC(=O)CNC(=O)CNC(=O)[C@H](C)NC(=O)CNC(=O)CNC(=O)CN)C(N)=O)c(=O)oc2c1) [GGGAGGG-DEAC, reference compound]
binding to colonic dysplasia/adenomas on fluorescence images [2]: minimal signal
Average T/B [2]: 1.19±0.09

KCCFPAQ [Peptide 2, heptapeptide from M13 phage display]
bound KCCFPAQ phage count ([3]; HT29, 200 μM unlabeled KCCFPAQ peptide): 3.8×10^4±6.6×10^3
inhibition of WT phage binding ([3]; addition of KCCFPAQ peptide): did not inhibit
rate of inhibition at saturation ([3]; peptide concentration above ˜75 μM): > 98%
inhibition of KCCFPAQ phage binding to HT29 cells ([3]; up to 200 μM unlabeled peptide): in a dose-dependent manner

LTTHYKL-CF633: LTTHYKL labeled with CF633 (also: CF633 label, place not given here)
binding to colonic dysplasia/adenomas on fluorescence images [2]: more subtle

LTTHYKL-FITC: LTTHYKL labeled with 5′-FITC at the C-terminus via GGGSK linker (not fully specified; GGGSK linker, FITC)
Average T/B [1]: 1.50 ± 0.73

NLVNLLP-FITC: NLVNLLP labeled with 5′-FITC at the C-terminus via GGGSK linker (not fully specified; GGGSK linker, FITC)
Average T/B [1]: 0.99 ± 0.06

QPI-Cy5.5: QPIHPNNM conjugated with Cy5.5 on the N-terminus via an amino-hexanoic acid linker ({Cy5.5-Ahx}-QPIHPNNM; not fully specified)
staining of dysplasia and adenocarcinoma ([4]; 10 μM, 15 min, RT): consistently stained
staining of normal colonic mucosa ([4]; 10 μM, 15 min, RT): did not stain any of the 7 sections
staining of normal colonic mucosa ([4]; 10 μM, 15 min, RT, listed as QPI-CY5.5): no binding
T/B ratio QPI-Cy5.5 in comparison to YTT-Cy5.5 ([4]; adenocarcinoma): 2.9
intensity ratio relative to normal colonic mucosa ([4]; adenocarcinoma): 6.5
mean NIR fluorescence intensity ([4]; adenocarcinoma): 9.8±2.4 AU
T/B ratio QPI-Cy5.5 in comparison to YTT-Cy5.5 ([4]; dysplasia): 26.7
intensity ratio relative to normal colonic mucosa ([4]; dysplasia): 7.1
mean NIR fluorescence intensity ([4]; dysplasia): 10.7±3.3 AU
mean NIR fluorescence intensity ([4]; normal): 1.5±1.0 AU
T/B ratio QPI-Cy5.5 in comparison to YTT-Cy5.5 ([4]; normal mucosa): 1.8
sections of adenocarcinoma stained [4]: 8/10
sections of dysplasia stained [4]: 6/8
fluorescence signal on in vivo NIR image [5]: significant contrast enhancement
average T/B ratio [5]: 3.42±1.30

YTTNKH [YTT-Cy5.5, reference compound]
staining of any specimen (normal, dysplasia, adenocarcinoma) ([4]; 10 μM, 15 min, RT): did not stain any of the specimens
staining of normal colonic mucosa ([4]; 10 μM, 15 min, RT): did not stain
sections of adenocarcinoma stained [4]: 5/10
sections of dysplasia stained [4]: did not stain
fluorescence signal on in vivo NIR image [5]: negligible signal
average T/B ratio [5]: 1.88±0.38
